{"source": "patent US7589080B2", "about": "“β-cyclodextrin compositions, and use to prevent transmission of sexually transmitted diseases” (priority 2000, dated 2009)", "format_in_all_cases": "cell-based", "key": {"[1]": {"system": "CD4+ HIV-susceptible target cells", "assay": "Cell viability, growth and function after 2-OH-βCD treatment", "from_the_text": "The role of lipid rafts in the HIV-1 fusion process was examined by treating CD4+HIV-susceptible target cells with 2-OH-βCD to deplete membrane cholesterol and disperse lipid rafts.\nLoss of CXCR function in regulating LFA-1 could also explain the lower binding of HIV-1 to βCD-treated cells observed previously (Liao et al., supra, 2000; Orentas and Hildreth, supra, 1993). […] The ability of βCD treatment of cells to affect control of LFA-1 function by CXCR4 also was examined. Jurkat cells were treated with 2-OH-βCD or medium alone, then were added to the wells of culture plates coated with soluble recombinant ICAM-Ig. SDF-1, a CXCR4-specific chemokine that triggers LFA-1 function, was added to trigger binding of LFA-1 to ICAM-1. Control cells responded to SDF-1 and, as expected, bound very well to ICAM-Ig. […] CXCR4-specific gp120 triggers the same responses through CXCR4 as SDF-1 (Iyengar et al., J. Immunol. 162:6263-6267, 1999).\n(§1) βCD treatment blocks HIV-1 virus infection. HIV-1 can spread in cell cultures without necessarily exerting cytopathic effects. […] To test the effects of cholesterol depletion on HIV-1 infection of primary T cells by free virus, PHA blasts were treated with 10 mM 2-OH-βCD or medium alone, then were exposed to HIV-1 for 2 hr before washing to remove input virus. Viability and growth of the PHA blasts was not affected by treatment with the βCD under the conditions used. P24 release was measured after an addition 6 days in culture. Two primary strains of HIV-1, 97.099 and 97.534, M-tropic (R5) and dual-tropic (X4R5), respectively, were tested.\nThe effects of βCD treatment on HIV infectivity were measured in a sensitive single-cycle infection assay based on a cell line transfected with an LTR-luciferase cassette. […] Quantitative measurements of single round infection are obtained with this assay system (Roos et al., Virology 273:307-315, 2000, which is incorporated herein by reference). Viability of LuSIV cells as determined by trypan blue exclusion and proliferation was not affected by 2-OH-βCD treatment. βCD treatment of LuSIV cells reduced HIV infection by almost 100%, and the effects were readily seen at all viral input levels."}, "[2]": {"system": "HIV-1 primary strain 97.099, M-tropic (R5)", "assay": "Primary virus infection assay, isolate 97.099", "conditions": "PHA blasts treated with 10 mM; p24 after 6 days", "method": "(§2) Peripheral blood mononuclear cells (PBMCS) were isolated by Ficoll-Hypaque centrifugation from buffy coats obtained from the Johns Hopkins Hemapheresis Center. Cells were stimulated for 3 days with 3 Tg/ml PHA, washed with iRPMI, and treated with 10 mM 2-OH-βCD in cRPMI for 1 hr. Cells were then washed twice with iRPMI and resuspended in cRPMI (1×10^6/ml) supplemented with 50 U/ml IL-2 and containing primary HIV-1 strains at 20 ng/ml p24. Cells were incubated with virus for 24 hr at 37° C. before washing twice with iRPMI. Cells were then resuspended in cRPMI supplemented with 50 U/ml IL-2 and cultured for 6 days at 37° C. Supernatants were collected and p24 was quantitated by standard p24 ELISA.\nas §1"}, "[3]": {"system": "HIV-1 primary strain 97.534, dual-tropic (X4R5)", "assay": "Primary virus infection assay, isolate 97.534", "conditions": "PHA blasts treated with 10 mM; p24 after 6 days", "method": "as §2, §1"}, "[4]": {"system": "CXCR4, CD4 and CD45 on PHA blasts", "assay": "Immunostaining and confocal microscopy of PHA blasts", "method": "Cell-surface staining of 2-OH-βCD-treated and untreated cells was performed under saturating conditions. 2-OH-βCD-treated and untreated PHA blasts (3×10^5) were washed in cold PBS and pre-incubated on ice for 15 min in 5% NGS/PBS. Cells were then incubated with MAb 1-5 μg in 5% NGS/PBS 45 min on ice, washed with PBS and then incubated with 2 μg of FITC-GAM in 5% NGS/PBS. The cells were then fixed with 2% paraformaldehyde in PBS and spun onto poly-L-lysine coated slides using cyto-funnels. The pellets were overlaid with 50 μl of 25% glycerol in PBS and a coverslip was positioned over the droplet. The edges of the slides were sealed with nail polish before storing them at 4° C. This staining procedure was also performed with cells prefixed with 2% paraformaldehyde in PBS prior to MAb staining. Viewing of slides was performed with an Olympus IX50 confocal microscope under oil immersion at 100x magnification. Micrographs were acquired onto a Silicon Graphics Workstation with Intervision software. Final images were enhanced on the Silicon Graphics Workstation by two-dimensional deconvolution, and brightness and contrast were adjusted for viewing.\nPatchy staining of CXCR4 persisted after 2-OH-βCD treatment whether the cells were fixed before or after mAb staining. […]"}, "CCR5": {"system": "CCR5", "assay": "Flow cytometry of CCR5 expression on primary T cells", "conditions": "primary T cells after treatment (19% before)", "method": "Flow cytometry was performed as previously described (Orentas and Hildreth, supra, 1993). Briefly, 2×10^5 2-OH-βCD treated or untreated cells in 100 μl PBS containing 5% normal goat serum (NGS) were added to 100 μl of MAb (1-5 μg) and incubated 30 min on ice. In comparative experiments we prefixed the cells with 2% paraformaldehyde in PBS immediately after 2-OH-βCD treatment. Cells were washed with PBS, resuspended in 100 μl of PBS, 5% NGS containing 2 Tg of FITC conjugated-goat anti-mouse IgG (FITC-GAM) and incubated 1 h on ice. Cells were then washed with PBS and fixed with 2% paraformaldehyde followed by analysis on an EPICS Profile II flow cytometer.\nCholesterol depletion also promoted CXCR4 down-modulation by MAb-induced internalization. A possible explanation for the inhibition of syncytium formation by cholesterol depletion as described above is that CD4, CRs, or both are lost from the cell surface, for example, by extrusion from the membrane in vesicles after loss of cholesterol, or they could be internalized. To explore these possibilities, βCD treated cells were examined for expression of HIV receptors by flow cytometry. […] In contrast, cell surface expression of CXCR4 was reduced by 50% or more in all of the cells after 2-OH-βCD treatment (Table 1)."}}, "data": [{"substance": "2-hydroxypropyl-β-cyclodextrin [2-OH-βCD]", "values": [{"measurement": "Viability and growth of the PHA blasts", "setting": "[1]; 10 mM", "result": "not affected"}, {"measurement": "Cell viability by Trypan Blue exclusion", "setting": "[1]; 10 to 20 mM for 1 hr at 37° C", "result": "without any loss in cell viability"}, {"measurement": "Cell viability", "setting": "[1]; Jurkat cells, adhesion assay", "result": "no effect on cell viability"}, {"measurement": "Viability of LuSIV cells by trypan blue exclusion and proliferation", "setting": "[1]; LuSIV cells", "result": "not affected"}, {"measurement": "Cell growth after treatment", "setting": "[1]; placed back into culture in cholesterol-containing medium", "result": "continued to grow normally"}, {"measurement": "Ca2+ flux responses to anti-CD3 MAb", "setting": "[1]; treated Jurkat cells", "result": "still showed Ca^2+ flux responses"}, {"measurement": "Infection of PHA blasts by HIV isolate 97.099 (p24 release)", "setting": "[2]", "result": "completely inhibited"}, {"measurement": "Inhibition of infection of PHA blasts by isolate 97.534 (p24 release)", "setting": "[3]", "result": "more than 70%"}, {"measurement": "Distribution of CXCR4 on the cell surface", "setting": "[4]; PHA blasts after cholesterol depletion", "result": "not significantly redistributed"}, {"measurement": "Distribution of CD4 and CD45 on the cell surface", "setting": "[4]; PHA blasts after treatment", "result": "unchanged"}, {"measurement": "CCR5 expression, cells staining positive", "setting": "CCR5", "result": 8, "unit": "%"}]}]}
